Data: ChEMBL document CHEMBL3860064, “Synthesis of (benzimidazol-2-yl)aniline derivatives as glycogen phosphorylase inhibitors” (Bioorg Med Chem, 2016)

Columns and labels:
[1] = Solubility of the compound in water; format: physicochemical; details: buffer
[2] = target: T1, Glycogen phosphorylase, muscle form (Oryctolagus cuniculus, UniProt P00489); assay: Inhibition of rabbit skeletal muscle glycogen phosphorylase b assessed as reduction in inorganic phosphate release using glucose-1-phosphate as substrate at pH 6.8
T1 sequence (P00489 whole entry): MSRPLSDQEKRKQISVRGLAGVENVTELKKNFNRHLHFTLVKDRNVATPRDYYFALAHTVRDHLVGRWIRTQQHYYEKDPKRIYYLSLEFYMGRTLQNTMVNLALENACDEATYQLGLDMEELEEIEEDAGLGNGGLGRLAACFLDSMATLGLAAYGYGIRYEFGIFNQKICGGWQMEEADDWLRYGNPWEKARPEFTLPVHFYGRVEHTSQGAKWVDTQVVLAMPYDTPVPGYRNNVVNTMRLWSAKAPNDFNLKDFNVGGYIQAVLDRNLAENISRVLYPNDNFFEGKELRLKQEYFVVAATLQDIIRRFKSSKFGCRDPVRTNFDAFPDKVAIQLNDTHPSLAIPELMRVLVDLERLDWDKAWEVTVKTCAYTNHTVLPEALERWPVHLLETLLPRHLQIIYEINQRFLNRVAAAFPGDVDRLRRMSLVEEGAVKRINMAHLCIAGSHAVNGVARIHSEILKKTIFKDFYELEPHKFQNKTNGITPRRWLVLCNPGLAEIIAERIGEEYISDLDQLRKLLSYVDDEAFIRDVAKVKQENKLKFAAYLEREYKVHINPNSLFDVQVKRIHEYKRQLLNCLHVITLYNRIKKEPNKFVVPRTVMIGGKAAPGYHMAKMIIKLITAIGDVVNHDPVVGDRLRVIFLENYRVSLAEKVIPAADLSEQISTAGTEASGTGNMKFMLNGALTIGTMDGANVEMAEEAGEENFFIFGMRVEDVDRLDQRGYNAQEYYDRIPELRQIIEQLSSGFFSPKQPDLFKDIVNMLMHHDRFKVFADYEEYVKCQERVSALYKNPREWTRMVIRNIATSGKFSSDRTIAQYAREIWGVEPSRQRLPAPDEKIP

[3] = Aqueous solubility of the compound in 20% DMSO; format: physicochemical; details: buffer
[4] = target: T2, Glycogen phosphorylase, muscle form (Oryctolagus cuniculus) (UniProt P00489); assay: Inhibition of rabbit skeletal muscle glycogen phosphorylase b assessed as inorganic phosphate release using glucose-1-phosphate as substrate at pH 6.8 at 1000 uM
T2 sequence (whole entry): T1 sequence (P00489 whole entry)

[5] = target: T2, Glycogen phosphorylase, muscle form (Oryctolagus cuniculus); assay: Inhibition of rabbit skeletal muscle glycogen phosphorylase b assessed as inorganic phosphate release using glucose-1-phosphate as substrate at pH 6.8 at 250 uM
[6] = target: T2, Glycogen phosphorylase, muscle form (Oryctolagus cuniculus); assay: Inhibition of rabbit skeletal muscle glycogen phosphorylase b assessed as inorganic phosphate release using glucose-1-phosphate as substrate at pH 6.8 at 500 uM
[7] = target: T2, Glycogen phosphorylase, muscle form (Oryctolagus cuniculus); assay: Inhibition of rabbit skeletal muscle glycogen phosphorylase b assessed as inorganic phosphate release using glucose-1-phosphate as substrate at pH 6.8 at 300 uM
[8] = target: T2, Glycogen phosphorylase, muscle form (Oryctolagus cuniculus); assay: Inhibition of rabbit skeletal muscle glycogen phosphorylase b assessed as inorganic phosphate release using glucose-1-phosphate as substrate at pH 6.8 at 200 uM
[9] = target: T3, Glycogen phosphorylase, liver form (Homo sapiens, UniProt P06737); assay: Inhibition of human recombinant liver glycogen phosphorylase A expressed in baculovirus infected Sf9 insect cells assessed as release of phosphate from glucose-1- phosphate in presence of 7.5 mM glucose by malachite green based assay
T3 sequence (P06737 whole entry): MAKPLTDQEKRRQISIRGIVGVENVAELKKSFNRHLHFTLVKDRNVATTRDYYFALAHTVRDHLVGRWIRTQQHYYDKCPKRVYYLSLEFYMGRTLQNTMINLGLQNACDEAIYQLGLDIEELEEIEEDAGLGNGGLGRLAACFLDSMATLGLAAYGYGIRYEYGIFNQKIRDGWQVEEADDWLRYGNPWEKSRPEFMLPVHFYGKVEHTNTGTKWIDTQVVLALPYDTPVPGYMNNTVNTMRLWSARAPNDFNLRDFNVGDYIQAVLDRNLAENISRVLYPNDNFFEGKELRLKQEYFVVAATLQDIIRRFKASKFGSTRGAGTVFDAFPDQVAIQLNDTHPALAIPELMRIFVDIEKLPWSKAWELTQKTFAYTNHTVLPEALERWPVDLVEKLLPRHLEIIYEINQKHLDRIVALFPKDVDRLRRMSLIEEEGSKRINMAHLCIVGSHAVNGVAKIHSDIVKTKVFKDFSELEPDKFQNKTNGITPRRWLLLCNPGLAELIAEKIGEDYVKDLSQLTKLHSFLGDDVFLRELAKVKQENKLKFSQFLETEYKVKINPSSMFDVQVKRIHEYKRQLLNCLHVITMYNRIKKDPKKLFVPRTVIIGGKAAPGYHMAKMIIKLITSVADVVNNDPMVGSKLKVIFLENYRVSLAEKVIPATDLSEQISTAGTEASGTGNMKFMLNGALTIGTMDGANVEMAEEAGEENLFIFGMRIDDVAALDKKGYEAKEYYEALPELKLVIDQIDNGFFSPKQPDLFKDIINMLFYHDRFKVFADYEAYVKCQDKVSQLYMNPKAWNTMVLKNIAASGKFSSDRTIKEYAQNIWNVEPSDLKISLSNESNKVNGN

[10] = target: T1, Glycogen phosphorylase, muscle form; assay: Inhibition of rabbit muscle glycogen phosphorylase b using […] preincubated for 60 mins followed by substrate addition in presence of glycogen

SMILES	solubility [1]	solubility [3]	other results
O=S(=O)(Nc1ccc(-c2nc3ccccc3[nH]2)cc1)c1ccccc1	Insoluble	Soluble	IC50 [2]: 324 µM
CCOC(=O)C(=NNc1ccc(-c2nc3ccccc3[nH]2)cc1)C(=O)OCC	Insoluble	Soluble	
O=C(O)/C=C/C(=O)Nc1ccc(-c2nc3ccccc3[nH]2)cc1	Insoluble		inhibition [4]: 45%
CC(=O)C(/N=N/c1ccc(-c2nc3ccccc3[nH]2)cc1)=C(/C)O	Insoluble	Soluble	
O=C(O)c1cc(Nc2ccc(-c3nc4ccccc4[nH]3)cc2)[nH]n1	Insoluble	Insoluble	
S=C1N=C(Nc2ccc(-c3nc4ccccc4[nH]3)cc2)CN1	Insoluble		
N=C1N=C(Nc2ccc(-c3nc4ccccc4[nH]3)cc2)CN1	Insoluble		
O=C(O)c1cc(Nc2ccc(-c3nc4ccccc4[nH]3)cc2)n(-c2ccc([N+](=O)[O-])cc2)n1	Insoluble		inhibition [5]: 8.1%
O=c1[nH][nH]c(O)c1/N=N/c1ccc(-c2nc3ccccc3[nH]2)cc1	Insoluble		inhibition [6]: 29.4%
O=C1N=C(Nc2ccc(-c3nc4ccccc4[nH]3)cc2)CNN1	Insoluble		IC50 [2]: 437 µM
Cc1nn(-c2ccc([N+](=O)[O-])cc2)c(C)c1/N=N/c1ccc(-c2nc3ccccc3[nH]2)cc1	Insoluble		IC50 [2]: 532 µM
O=C1N=C(Nc2ccc(-c3nc4ccccc4[nH]3)cc2)CN1	Insoluble		
c1ccc2[nH]c(-c3ccc(NC4=NCCNC4)cc3)nc2c1	Insoluble		
O=C(O)c1cc(Nc2ccc(-c3nc4ccccc4[nH]3)cc2)n(-c2ccccc2)n1	Insoluble		inhibition [7]: 25%
Cc1ccc(S(=O)(=O)Nc2ccc(-c3nc4ccccc4[nH]3)cc2)cc1	Insoluble	Soluble	inhibition [6]: 20.7%
Cc1n[nH]c(C)c1/N=N/c1ccc(-c2nc3ccccc3[nH]2)cc1	Insoluble		
Oc1nc(=S)[nH]c(O)c1/N=N/c1ccc(-c2nc3ccccc3[nH]2)cc1	Insoluble		inhibition [8]: 16.1%
O=[N+]([O-])c1ccccc1S(=O)(=O)Nc1ccc(-c2nc3ccccc3[nH]2)cc1	Insoluble	Soluble	IC50 [2]: 358 µM
O=C(CCl)Nc1ccc(-c2nc3ccccc3[nH]2)cc1	Insoluble	Soluble	
S=C1N=C(Nc2ccc(-c3nc4ccccc4[nH]3)cc2)CNN1	Insoluble	Soluble	
Nc1ccc(-c2nc3ccccc3[nH]2)cc1	Insoluble		
O=C(NC(=O)c1cc(F)c(F)cc1Cl)Nc1ccsc1-c1n[nH]c(=O)o1			IC50 [9]: 30 µM
Cc1nn(-c2ccccc2)c(C)c1/N=N/c1ccc(-c2nc3ccccc3[nH]2)cc1	Insoluble		
CC(=O)C/C(C)=N/c1ccc(-c2nc3ccccc3[nH]2)cc1	Insoluble	Soluble	inhibition [8]: 7%
O=C(N[C@@H](Cc1ccc(F)cc1)C(=O)C(=O)N1CCC(O)CC1)c1cc2cc(Cl)ccc2[nH]1			IC50 [10]: 0.178 µM; IC50 [9]: 0.2 µM
CN(C)C(=O)[C@H](O)[C@H](Cc1ccccc1)NC(=O)c1cc2cc(Cl)ccc2[nH]1			IC50 [9]: 0.082 µM
